System: 699152-130-R-J1-PDC complex spheroid viability
Experiment: Anticancer human tumor 699152-130-R-J1-PDC patient-derived pancreatic carcinoma cell line growth inhibition [POLQ]
Settings: for IC50: curve of first compound; for viability, T/C: stronger effect = lower value
Outline: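 Complex spheroid viability model combining PDC tumour cells with endothelial (HUVEC) and MSC stromal cells. Novobiocin, ART-558 or RP6685 were tested singly and in combination with standard and investigational anticancer drugs. Each was titrated in half-log steps from near clinical Cmax, or from 10 microM where Cmax was unknown.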
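Further: spheroids exposed to agents for 7 days before viability reading.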
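Wherever viability, T/C is given: percent of DMSO vehicle control viability so 100% = vehicle and 0% = no viable signal.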

Structure (SMILES): CC(=O)O[C@H]1C(=O)[C@@]2(C)[C@H]([C@H](OC(=O)c3ccccc3)[C@]3(O)C[C@H](OC(=O)[C@H](O)[C@@H](NC(=O)c4ccccc4)c4ccccc4)C(C)=C1C3(C)C)[C@]1(OC(C)=O)CO[C@@H]1C[C@@H]2O + COC1C(OC(N)=O)C(O)C(Oc2ccc3c(O)c(NC(=O)c4ccc(O)c(CC=C(C)C)c4)c(=O)oc3c2C)OC1(C)C
- IC50 (second compound 0.0316 µM): > 3000 nM
- IC50 (second compound 0.1 µM): > 3000 nM
- IC50 (second compound 0.316 µM): > 3000 nM
- IC50 (second compound 1 µM): > 3000 nM
- IC50 (second compound 3.16 µM): > 3000 nM
- IC50 (second compound 10 µM): > 3000 nM
- viability, T/C (second compound 0.0316 µM, first compound 0.00949 µM): 81.5%
- viability, T/C (second compound 0.0316 µM, first compound 0.03 µM): 57%
- viability, T/C (second compound 0.0316 µM, first compound 0.0949 µM): 57.1%
- viability, T/C (second compound 0.0316 µM, first compound 0.3 µM): 60.7%
- viability, T/C (second compound 0.0316 µM, first compound 0.949 µM): 70.2%
- viability, T/C (second compound 0.0316 µM, first compound 3 µM): 63%
- viability, T/C (second compound 0.1 µM, first compound 0.00949 µM): 87.9%
- viability, T/C (second compound 0.1 µM, first compound 0.03 µM): 60.2%
- viability, T/C (second compound 0.1 µM, first compound 0.0949 µM): 47.7%
- viability, T/C (second compound 0.1 µM, first compound 0.3 µM): 62.5%
- viability, T/C (second compound 0.1 µM, first compound 0.949 µM): 62.4%
- viability, T/C (second compound 0.1 µM, first compound 3 µM): 74.5%
- viability, T/C (second compound 0.316 µM, first compound 0.00949 µM): 90%
- viability, T/C (second compound 0.316 µM, first compound 0.03 µM): 61.4%
- viability, T/C (second compound 0.316 µM, first compound 0.0949 µM): 46.9%
- viability, T/C (second compound 0.316 µM, first compound 0.3 µM): 53.2%
- viability, T/C (second compound 0.316 µM, first compound 0.949 µM): 57.3%
- viability, T/C (second compound 0.316 µM, first compound 3 µM): 58.1%
- viability, T/C (second compound 1 µM, first compound 0.00949 µM): 77.2%
- viability, T/C (second compound 1 µM, first compound 0.03 µM): 67.8%
- viability, T/C (second compound 1 µM, first compound 0.0949 µM): 52.8%
- viability, T/C (second compound 1 µM, first compound 0.3 µM): 57.7%
- viability, T/C (second compound 1 µM, first compound 0.949 µM): 66%
- viability, T/C (second compound 1 µM, first compound 3 µM): 68.7%
- viability, T/C (second compound 3.16 µM, first compound 0.00949 µM): 91.9%
- viability, T/C (second compound 3.16 µM, first compound 0.03 µM): 68.9%
- viability, T/C (second compound 3.16 µM, first compound 0.0949 µM): 62.4%
- viability, T/C (second compound 3.16 µM, first compound 0.3 µM): 55.5%
- viability, T/C (second compound 3.16 µM, first compound 0.949 µM): 59.6%
- viability, T/C (second compound 3.16 µM, first compound 3 µM): 73.1%
- viability, T/C (second compound 10 µM, first compound 0.00949 µM): 84%
- viability, T/C (second compound 10 µM, first compound 0.03 µM): 60.6%
- viability, T/C (second compound 10 µM, first compound 0.0949 µM): 60.6%
- viability, T/C (second compound 10 µM, first compound 0.3 µM): 61.7%
- viability, T/C (second compound 10 µM, first compound 0.949 µM): 73.1%
- viability, T/C (second compound 10 µM, first compound 3 µM): 67.9%

Structure (SMILES): O=C(c1cc(Cc2n[nH]c(=O)c3ccccc23)ccc1F)N1CCN(C(=O)C2CC2)CC1 + COC1C(OC(N)=O)C(O)C(Oc2ccc3c(O)c(NC(=O)c4ccc(O)c(CC=C(C)C)c4)c(=O)oc3c2C)OC1(C)C
- IC50 (second compound 0.0316 µM): < 31.6 nM
- IC50 (second compound 0.1 µM): < 31.6 nM
- IC50 (second compound 0.316 µM): < 31.6 nM
- IC50 (second compound 1 µM): < 31.6 nM
- IC50 (second compound 3.16 µM): < 31.6 nM
- IC50 (second compound 10 µM): < 31.6 nM
- viability, T/C (second compound 0.0316 µM, first compound 0.0316 µM): 38.8%
- viability, T/C (second compound 0.0316 µM, first compound 0.1 µM): 37.8%
- viability, T/C (second compound 0.0316 µM, first compound 0.316 µM): 35.3%
- viability, T/C (second compound 0.0316 µM, first compound 1 µM): 40.3%
- viability, T/C (second compound 0.0316 µM, first compound 3.16 µM): 35.7%
- viability, T/C (second compound 0.0316 µM, first compound 10 µM): 34%
- viability, T/C (second compound 0.1 µM, first compound 0.0316 µM): 42.7%
- viability, T/C (second compound 0.1 µM, first compound 0.1 µM): 37.2%
- viability, T/C (second compound 0.1 µM, first compound 0.316 µM): 38.5%
- viability, T/C (second compound 0.1 µM, first compound 1 µM): 43.9%
- viability, T/C (second compound 0.1 µM, first compound 3.16 µM): 37.2%
- viability, T/C (second compound 0.1 µM, first compound 10 µM): 29.8%
- viability, T/C (second compound 0.316 µM, first compound 0.0316 µM): 40%
- viability, T/C (second compound 0.316 µM, first compound 0.1 µM): 41.5%
- viability, T/C (second compound 0.316 µM, first compound 0.316 µM): 40.6%
- viability, T/C (second compound 0.316 µM, first compound 1 µM): 36.5%
- viability, T/C (second compound 0.316 µM, first compound 3.16 µM): 33.6%
- viability, T/C (second compound 0.316 µM, first compound 10 µM): 32.3%
- viability, T/C (second compound 1 µM, first compound 0.0316 µM): 41.6%
- viability, T/C (second compound 1 µM, first compound 0.1 µM): 39.7%
- viability, T/C (second compound 1 µM, first compound 0.316 µM): 36.9%
- viability, T/C (second compound 1 µM, first compound 1 µM): 37.4%
- viability, T/C (second compound 1 µM, first compound 3.16 µM): 39.6%
- viability, T/C (second compound 1 µM, first compound 10 µM): 35.1%
- viability, T/C (second compound 3.16 µM, first compound 0.0316 µM): 39%
- viability, T/C (second compound 3.16 µM, first compound 0.1 µM): 42.9%
- viability, T/C (second compound 3.16 µM, first compound 0.316 µM): 41.3%
- viability, T/C (second compound 3.16 µM, first compound 1 µM): 40.7%
- viability, T/C (second compound 3.16 µM, first compound 3.16 µM): 36.8%
- viability, T/C (second compound 3.16 µM, first compound 10 µM): 36.9%
- viability, T/C (second compound 10 µM, first compound 0.0316 µM): 38.3%
- viability, T/C (second compound 10 µM, first compound 0.1 µM): 36.2%
- viability, T/C (second compound 10 µM, first compound 0.316 µM): 36.2%
- viability, T/C (second compound 10 µM, first compound 1 µM): 40.2%
- viability, T/C (second compound 10 µM, first compound 3.16 µM): 42.9%
- viability, T/C (second compound 10 µM, first compound 10 µM): 31.1%

From PubChem BioAssay AID1963835 (Molecular Pharmacology Branch, DTP, NCI, 2024)
